Reference: US20080161289A1, “Fused Thiazole Derivatives Having Affinity for the Histamine H3 Receptor” (Glaxo Group Limited, priority 2005, published 2008)

Each compound was assayed against T1, histamine H3 receptors (Homo sapiens, UniProt Q9Y5N1) (assay: Histamine H3 functional antagonist assay ([35S]-GTPγS SPA on membranes from H3 cells)). Conditions: hydrochloride salts tested; H3 functional antagonist assay using membrane prepared from cultured H3 cells; averages of a number of experiments; read-out: functional pKi (fpKi) (converted).
T1 construct: expressed in transfected cells; host or cells: CHO K1 cells carrying pSwitch, transfected with pGeneH3, induced with mifepristone; clone 3H3; membrane preparation
T1 sequence (Q9Y5N1 whole entry): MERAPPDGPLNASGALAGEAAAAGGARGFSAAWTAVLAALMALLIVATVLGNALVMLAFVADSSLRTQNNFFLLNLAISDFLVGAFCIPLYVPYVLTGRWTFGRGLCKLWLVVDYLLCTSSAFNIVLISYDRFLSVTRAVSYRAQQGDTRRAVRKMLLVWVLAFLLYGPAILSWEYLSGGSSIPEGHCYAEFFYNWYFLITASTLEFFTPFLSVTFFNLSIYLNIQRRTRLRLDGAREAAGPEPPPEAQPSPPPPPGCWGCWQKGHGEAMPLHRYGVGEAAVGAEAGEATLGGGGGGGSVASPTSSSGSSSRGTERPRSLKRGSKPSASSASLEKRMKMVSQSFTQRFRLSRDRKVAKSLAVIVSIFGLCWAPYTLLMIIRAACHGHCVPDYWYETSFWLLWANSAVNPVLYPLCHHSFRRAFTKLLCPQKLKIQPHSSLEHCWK
Format: biochemical
Text: A membrane preparation containing histamine H3 receptors may be prepared in accordance with the following procedures:
(i) Generation of Histamine H3 Cell Line
DNA encoding the human histamine H3 gene (Huvar, A. et al. (1999) Mol. Pharmacol. 55(6), 1101-1107) was cloned into a holding vector, pCDNA3.1 TOPO (InVitrogen) and its cDNA was isolated from this vector by restriction digestion of plasmid DNA with the enzymes BamHI and Not-1 and ligated into the inducible expression vector pGene (InVitrogen) digested with the same enzymes. The GeneSwitch™ system (a system where in transgene expression is switched off in the absence of an inducer and switched on in the presence of an inducer) was performed as described in U.S. Pat. Nos. 5,364,791; 5,874,534; and 5,935,934. Ligated DNA was transformed into competent DH5α E. coli host bacterial cells and plated onto Luria Broth (LB) agar containing Zeocin™ (an antibiotic which allows the selection of cells expressing the sh ble gene which is present on pGene and pSwitch) at 50 μg ml^−1. Colonies containing the re-ligated plasmid were identified by restriction analysis. DNA for transfection into mammalian cells was prepared from 250 ml cultures of the host bacterium containing the pGeneH3 plasmid and isolated using a DNA preparation kit (Qiagen Midi-Prep) as per manufacturers guidelines (Qiagen).
CHO K1 cells previously transfected with the pSwitch regulatory plasmid (InVitrogen) were seeded at 2×10e6 cells per T75 flask in Complete Medium, containing Hams F12 (GIBCOBRL, Life Technologies) medium supplemented with 10% v/v dialysed foetal bovine serum, L-glutamine, and hygromycin (100 μg ml^−1), 24 hours prior to use. Plasmid DNA was transfected into the cells using Lipofectamine plus according to the manufacturers guidelines (InVitrogen). 48 hours post transfection cells were placed into complete medium supplemented with 500 μg ml^−1 Zeocin™.
10-14 days post selection 10 nM Mifepristone (InVitrogen), was added to the culture medium to induce the expression of the receptor. 18 hours post induction cells were detached from the flask using ethylenediamine tetra-acetic acid (EDTA; 1:5000; InVitrogen), following several washes with phosphate buffered saline pH 7.4 and resuspended in Sorting Medium containing Minimum Essential Medium (MEM), without phenol red, and supplemented with Earles salts and 3% Foetal Clone II (Hyclone). Approximately 1×10e7 cells were examined for receptor expression by staining with a rabbit polyclonal antibody, 4a, raised against the N-terminal domain of the histamine H3 receptor, incubated on ice for 60 minutes, followed by two washes in sorting medium. Receptor bound antibody was detected by incubation of the cells for 60 minutes on ice with a goat anti rabbit antibody, conjugated with Alexa 488 fluorescence marker (Molecular Probes). Following two further washes with Sorting Medium, cells were filtered through a 50 μm Filcon™ (BD Biosciences) and then analysed on a FACS Vantage SE Flow Cytometer fitted with an Automatic Cell Deposition Unit. Control cells were non-induced cells treated in a similar manner. Positively stained cells were sorted as single cells into 96-well plates, containing Complete Medium containing 500 μg ml^−1 Zeocin™ and allowed to expand before reanalysis for receptor expression via antibody and ligand binding studies. One clone, 3H3, was selected for membrane preparation.
(ii) Membrane Preparation from Cultured Cells
All steps of the protocol are carried out at 4° C. and with pre-cooled reagents. The cell pellet is resuspended in 10 volumes of homogenisation buffer (50 mM N-2-hydroxyethylpiperazine-N′-2-ethanesulfonic acid (HEPES), 1 mM ethylenediamine tetra-acetic acid (EDTA), pH 7.4 with KOH, supplemented with 10e-6M leupeptin (acetyl-leucyl-leucyl-arginal; Sigma L2884), 25 μg/ml bacitracin (Sigma B0125), 1 mM phenylmethylsulfonyl fluoride (PMSF) and 2×10e-6M pepstain A (Sigma)). […]
With `CC(C)N1CCc2nc(-c3ccc(N4CCN(C)C4=O)cc3)sc2CC1` [Example E29, 1-Methyl-3-{4-[6-(1-methylethyl)-5,6,7,8-tetrahydro-4H-[1,3]thiazolo[4,5-d]azepin-2-yl]phenyl}-2-imidazolidinone] the Ki was under 1.26 nM.
Work on `CN1CCN(c2ccc(-c3nc4c(s3)CCN(C3CCCCC3)CC4)cc2)C1=O` [Example E30, 1-[4-(6-Cyclohexyl-5,6,7,8-tetrahydro-4H-[1,3]thiazolo[4,5-d]azepin-2-yl)phenyl]-3-methyl-2-imidazolidinone] yielded a Ki of under 1.26 nM.
In the case of `CN1CCN(c2ccc(-c3nc4c(s3)CCN(CC3CC3)CC4)cc2)C1=O` [Example E31, 1-{4-[6-(Cyclopropylmethyl)-5,6,7,8-tetrahydro-4H-[1,3]thiazolo[4,5-d]azepin-2-yl]phenyl}-3-methyl-2-imidazolidinone], the Ki is reported as under 1.26 nM.
With `CC(C)CN1CCc2nc(-c3ccc(N4CCN(C)C4=O)cc3)sc2CC1` [Example E32, 1-Methyl-3-{4-[6-(2-methylpropyl)-5,6,7,8-tetrahydro-4H-[1,3]thiazolo[4,5-d]azepin-2-yl]phenyl}-2-imidazolidinone] the Ki was under 0.316 nM.
With `N#Cc1cncc(N2CCC(c3nc4c(s3)CCN(C3CCC3)CC4)C2)c1` (stereo not shown) [Example E39, 5-[3-(6-Cyclobutyl-5,6,7,8-tetrahydro-4H-[1,3]thiazolo[4,5-d]azepin-2-yl)-1-pyrrolidinyl]-3-pyridinecarbonitrile] the Ki was under 1.26 nM.
Compound `c1ccc(-c2nc3c(s2)CCN(C2CCC2)CC3)cc1` [Example E42, 6-Cyclobutyl-2-phenyl-5,6,7,8-tetrahydro-4H-[1,3]thiazolo[4,5-d]azepine] has a Ki of under 31.6 nM.
`CNC(=O)c1ccc(-c2nc3c(s2)CCN(C2CCC2)CC3)cc1` [Example E43, 4-(6-Cyclobutyl-5,6,7,8-tetrahydro-4H-[1,3]thiazolo[4,5-d]azepin-2-yl)-N-methylbenzamide] showed a Ki of under 1.26 nM.
`O=C1OCCN1c1ccc(-c2nc3c(s2)CCN(C2CCC2)CC3)cc1` [Example E44, 3-[4-(6-Cyclobutyl-5,6,7,8-tetrahydro-4H-[1,3]thiazolo[4,5-d]azepin-2-yl)phenyl]-1,3-oxazolidin-2-one] showed a Ki of under 0.316 nM.
`N#Cc1ccc(-c2nc3c(s2)CCN(C2CCC2)CC3)cc1` [Example E48, 4-(6-Cyclobutyl-5,6,7,8-tetrahydro-4H-[1,3]thiazolo[4,5-d]azepin-2-yl)benzonitrile] showed a Ki of under 1.26 nM.
Work on `N#Cc1ccc(-c2nc3c(s2)CCN(C2CCC2)CC3)cn1` [Example E49, 5-(6-Cyclobutyl-5,6,7,8-tetrahydro-4H-[1,3]thiazolo[4,5-d]azepin-2-yl)-2-pyridinecarbonitrile] yielded a Ki of under 31.6 nM.
In the case of `CNC(=O)c1ccc(-c2nc3c(s2)CCN(C2CCC2)CC3)cn1` [Example E51, 5-(6-Cyclobutyl-5,6,7,8-tetrahydro-4H-[1,3]thiazolo[4,5-d]azepin-2-yl)-N-methyl-2-pyridinecarboxamide], the Ki is reported as under 1.26 nM.
`O=C1CCCN1c1ccc(-c2nc3c(s2)CCN(C2CCC2)CC3)cn1` [Example E52, 1-[5-(6-Cyclobutyl-5,6,7,8-tetrahydro-4H-[1,3]thiazolo[4,5-d]azepin-2-yl)-2-pyridinyl]-2-pyrrolidinone] gave a Ki of under 0.316 nM.
With `CN1CCN(c2ccc(-c3nc4c(s3)CCN(C3CCC3)CC4)cn2)C1=O` [Example E53, 1-[5-(6-Cyclobutyl-5,6,7,8-tetrahydro-4H-[1,3]thiazolo[4,5-d]azepin-2-yl)-2-pyridinyl]-3-methyl-2-imidazolidinone] the Ki was under 0.316 nM.
In the case of `c1cc(N2CCCCC2)ncc1-c1nc2c(s1)CCN(C1CCC1)CC2` [Example E55, 6-Cyclobutyl-2-[6-(1-piperidinyl)-3-pyridinyl]-5,6,7,8-tetrahydro-4H-[1,3]thiazolo[4,5-d]azepine], the Ki is reported as under 1.26 nM.
Compound `c1ncc(-c2nc3c(s2)CCN(C2CCC2)CC3)cn1` [Example E58, 6-Cyclobutyl-2-(5-pyrimidinyl)-5,6,7,8-tetrahydro-4H-[1,3]thiazolo[4,5-d]azepine] has a Ki of under 31.6 nM.
With `c1nc(N2CCCCC2)ncc1-c1nc2c(s1)CCN(C1CCC1)CC2` [Example E61, 6-Cyclobutyl-2-[2-(1-piperidinyl)-5-pyrimidinyl]-5,6,7,8-tetrahydro-4H-[1,3]thiazolo[4,5-d]azepine] the Ki was under 31.6 nM.
In the case of `N#Cc1cncc(N2CCC(c3nc4c(s3)CCN(C3CCC3)CC4)CC2)c1` [Example E66, 5-[4-(6-Cyclobutyl-5,6,7,8-tetrahydro-4H-[1,3]thiazolo[4,5-d]azepin-2-yl)-1-piperidinyl]-3-pyridinecarbonitrile], the Ki is reported as under 1.26 nM.
Work on `N#Cc1ccc(N2CCC(c3nc4c(s3)CCN(C3CCC3)CC4)CC2)cc1` [Example E67, 4-[4-(6-Cyclobutyl-5,6,7,8-tetrahydro-4H-[1,3]thiazolo[4,5-d]azepin-2-yl)-1-piperidinyl]benzonitrile] yielded a Ki of under 0.316 nM.
In the case of `Cc1ccccc1NC(=O)N1CCC(c2nc3c(s2)CCN(C2CCC2)CC3)CC1` [Example E70, 4-(6-Cyclobutyl-5,6,7,8-tetrahydro-4H-[1,3]thiazolo[4,5-d]azepin-2-yl)-N-(2-methylphenyl)-1-piperidinecarboxamide], the Ki is reported as under 1.26 nM.
`N#Cc1ccc(-c2nc3c(s2)CCN(C2CCCC2)CC3)nc1` [Example E74, 6-(6-Cyclopentyl-5,6,7,8-tetrahydro-4H-[1,3]thiazolo[4,5-d]azepin-2-yl)-3-pyridinecarbonitrile] gave a Ki of under 31.6 nM.
For `CNC(=O)c1ccc(-c2nc3c(s2)CCN(C2CCC2)CC3)nc1` [Example E76, 6-(6-Cyclobutyl-5,6,7,8-tetrahydro-4H-[1,3]thiazolo[4,5-d]azepin-2-yl)-N-methyl-3-pyridinecarboxamide], the Ki was under 31.6 nM.
Work on `CNC(=O)c1ccc(N2CCC(c3nc4c(s3)CCN(C3CCC3)CC4)CC2)cn1` [Example E77, 5-[4-(6-Cyclobutyl-5,6,7,8-tetrahydro-4H-[1,3]thiazolo[4,5-d]azepin-2-yl)-1-piperidinyl]-N-methyl-2-pyridinecarboxamide] yielded a Ki of under 1.26 nM.
With `Cc1ccccc1C(=O)N1CCC(c2nc3c(s2)CCN(C2CCC2)CC3)CC1` [Example E78, 6-Cyclobutyl-2-{1-[(2-methylphenyl)carbonyl]-4-piperidinyl}-5,6,7,8-tetrahydro-4H-[1,3]thiazolo[4,5-d]azepine] the Ki was under 0.316 nM.
`Cc1cc(C(=O)N2CCC(c3nc4c(s3)CCN(C3CCC3)CC4)CC2)[nH]n1` [Example E79, 6-Cyclobutyl-2-{1-[(3-methyl-1H-pyrazol-5-yl)carbonyl]-4-piperidinyl}-5,6,7,8-tetrahydro-4H-[1,3]thiazolo[4,5-d]azepine] gave a Ki of under 1.26 nM.
With `O=C(c1ccc(Cl)cc1)N1CCC(c2nc3c(s2)CCN(C2CCC2)CC3)CC1` [Example E80, 2-{1-[(4-Chlorophenyl)carbonyl]-4-piperidinyl}-6-cyclobutyl-5,6,7,8-tetrahydro-4H-[1,3]thiazolo[4,5-d]azepine] the Ki was under 1.26 nM.
`O=C(c1cccc(Cl)c1)N1CCC(c2nc3c(s2)CCN(C2CCC2)CC3)CC1` [Example E81, 2-{1-[(3-Chlorophenyl)carbonyl]-4-piperidinyl}-6-cyclobutyl-5,6,7,8-tetrahydro-4H-[1,3]thiazolo[4,5-d]azepine] gave a Ki of under 0.316 nM.
`Cc1cccc(C(=O)N2CCC(c3nc4c(s3)CCN(C3CCC3)CC4)CC2)c1` [Example E82, 6-Cyclobutyl-2-{1-[(3-methylphenyl)carbonyl]-4-piperidinyl}-5,6,7,8-tetrahydro-4H-[1,3]thiazolo[4,5-d]azepine] gave a Ki of under 1.26 nM.
Compound `Cc1cccnc1C(=O)N1CCC(c2nc3c(s2)CCN(C2CCC2)CC3)CC1` [Example E83, 6-Cyclobutyl-2-{1-[(3-methyl-2-pyridinyl)carbonyl]-4-piperidinyl}-5,6,7,8-tetrahydro-4H-[1,3]thiazolo[4,5-d]azepine] has a Ki of under 1.26 nM.
